Columns and labels:
[1] = biological target: Human Met (residues R974-S1390 with A1209G and V1290L) (Homo sapiens, UniProt P08581); assay: Human Met kinase assay (33P radiometric, KinaseProfiler); type: biochemical; conditions: 10 μM ATP, read-out: c-Met IC50
AXL = AXL (Homo sapiens (Human), UniProt P30530); assay: AXL autophosphorylation ELISA in A-172 cells; type: cell-based; conditions: cellular, Gas6 stimulated
Outline: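 Serum-starved (24 h) A-172 glioblastoma cells pretreated 1 h with compounds (8-point curve, 0.3% DMSO), then stimulated 15 min with 1 μg/mL Gas6. Lysate phospho-AXL measured by sandwich ELISA against a phospho-AXL standard; IC50 from 4-parameter logistic fit between DMSO and reference-inhibitor controls.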

Mer = Mer (Homo sapiens (Human), UniProt Q12866); assay: Mer autophosphorylation ELISA in transient transfected 293A cells; type: cell-based; conditions: cellular, MERTK transfected 293A cells
Outline: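 293A cells transiently transfected with human MERTK DNA, then treated 1 h with 8-point compound dilutions in serum-free medium (0.3% DMSO). Phospho-Mer in lysates quantified by sandwich ELISA against phospho-Mer standard; normalised to DMSO (100%) and reference inhibitor (0%), IC50 from 4-parameter logistic fit.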

[2] = biological target: Human Axl (residues H473-A894 with Q764R) (Homo sapiens (Human), UniProt P30530, Q764R); assay: Human AXL kinase assay (33P radiometric, KinaseProfiler); type: biochemical; conditions: 10 μM ATP
Chain of Human Axl (residues H473-A894 with Q764R) (P30530 473-894 Q764R): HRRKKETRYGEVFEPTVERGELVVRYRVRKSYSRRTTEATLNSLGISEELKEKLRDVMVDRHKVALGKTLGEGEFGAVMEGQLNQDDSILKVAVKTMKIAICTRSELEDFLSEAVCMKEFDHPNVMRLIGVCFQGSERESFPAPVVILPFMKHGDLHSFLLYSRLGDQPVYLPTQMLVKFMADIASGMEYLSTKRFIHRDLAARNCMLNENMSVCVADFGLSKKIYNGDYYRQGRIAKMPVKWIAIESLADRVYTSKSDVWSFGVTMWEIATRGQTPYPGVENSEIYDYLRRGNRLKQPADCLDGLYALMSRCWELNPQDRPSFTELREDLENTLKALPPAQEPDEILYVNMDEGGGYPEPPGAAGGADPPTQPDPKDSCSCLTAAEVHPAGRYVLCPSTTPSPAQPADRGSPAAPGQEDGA

Chain of Mer (Q12866 21-999): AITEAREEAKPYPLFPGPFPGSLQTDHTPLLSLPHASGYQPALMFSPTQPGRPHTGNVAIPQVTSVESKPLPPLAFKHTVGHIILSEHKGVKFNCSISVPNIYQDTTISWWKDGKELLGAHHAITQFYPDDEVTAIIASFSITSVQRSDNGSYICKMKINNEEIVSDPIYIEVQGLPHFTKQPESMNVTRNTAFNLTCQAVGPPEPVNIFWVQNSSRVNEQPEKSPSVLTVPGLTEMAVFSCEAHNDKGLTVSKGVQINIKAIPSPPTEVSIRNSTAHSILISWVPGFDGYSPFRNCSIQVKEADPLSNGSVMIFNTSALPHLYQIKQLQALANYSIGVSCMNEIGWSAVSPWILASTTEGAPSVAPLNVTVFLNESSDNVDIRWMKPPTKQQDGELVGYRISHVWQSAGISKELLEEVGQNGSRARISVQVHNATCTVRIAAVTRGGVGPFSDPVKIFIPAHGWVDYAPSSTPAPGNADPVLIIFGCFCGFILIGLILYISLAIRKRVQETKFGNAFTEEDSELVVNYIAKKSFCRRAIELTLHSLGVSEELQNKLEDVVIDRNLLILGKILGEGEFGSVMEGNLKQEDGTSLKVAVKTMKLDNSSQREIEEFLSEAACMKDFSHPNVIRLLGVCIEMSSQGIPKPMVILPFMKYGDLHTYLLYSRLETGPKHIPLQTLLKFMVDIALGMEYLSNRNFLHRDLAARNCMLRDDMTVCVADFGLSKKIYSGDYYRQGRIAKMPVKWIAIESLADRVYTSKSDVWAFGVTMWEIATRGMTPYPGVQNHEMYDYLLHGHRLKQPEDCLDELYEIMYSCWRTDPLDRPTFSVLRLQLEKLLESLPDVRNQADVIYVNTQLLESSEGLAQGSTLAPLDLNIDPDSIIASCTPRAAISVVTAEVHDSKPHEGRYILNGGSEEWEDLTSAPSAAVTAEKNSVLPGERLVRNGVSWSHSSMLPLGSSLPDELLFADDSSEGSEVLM
Chain of AXL (P30530 26-894): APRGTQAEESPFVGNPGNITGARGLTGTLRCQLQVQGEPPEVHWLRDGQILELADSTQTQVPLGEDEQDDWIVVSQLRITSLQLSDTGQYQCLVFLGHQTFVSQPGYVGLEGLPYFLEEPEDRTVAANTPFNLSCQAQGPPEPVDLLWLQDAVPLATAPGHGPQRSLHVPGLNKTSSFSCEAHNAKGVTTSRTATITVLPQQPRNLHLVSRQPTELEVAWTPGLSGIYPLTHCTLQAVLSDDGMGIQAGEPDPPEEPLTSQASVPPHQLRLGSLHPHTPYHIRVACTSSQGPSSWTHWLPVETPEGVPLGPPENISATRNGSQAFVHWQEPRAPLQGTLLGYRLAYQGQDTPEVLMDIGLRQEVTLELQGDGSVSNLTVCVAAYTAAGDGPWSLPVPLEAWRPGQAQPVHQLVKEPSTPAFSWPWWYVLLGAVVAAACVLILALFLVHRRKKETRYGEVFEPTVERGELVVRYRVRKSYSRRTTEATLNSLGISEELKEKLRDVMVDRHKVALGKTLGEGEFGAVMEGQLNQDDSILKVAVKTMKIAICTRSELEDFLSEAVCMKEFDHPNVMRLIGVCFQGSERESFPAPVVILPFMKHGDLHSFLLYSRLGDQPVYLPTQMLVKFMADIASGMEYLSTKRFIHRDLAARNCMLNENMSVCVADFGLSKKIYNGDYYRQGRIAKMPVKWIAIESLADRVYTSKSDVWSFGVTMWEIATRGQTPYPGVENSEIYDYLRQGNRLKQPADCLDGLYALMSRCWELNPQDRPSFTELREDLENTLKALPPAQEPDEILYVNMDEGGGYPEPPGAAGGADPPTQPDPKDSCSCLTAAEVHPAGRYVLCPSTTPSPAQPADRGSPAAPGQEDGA

SMILES | IC50 [1] | IC50 (AXL) | IC50 (Mer) | IC50 [2]
CONC(=O)c1cc2c(Oc3ccc(NC(=O)C4(C(=O)Nc5ccc(F)cc5)CC4)cc3)ccnc2cc1OC [Compound 17, 1-N′-(4-fluorophenyl)-1-N-[4-[7-methoxy-6-(methoxycarbamoyl)quinolin-4-yl]oxyphenyl]cyclopropane-1,1-dicarboxamide] | – | 10 to 100 nM | 10 to 100 nM | –
COc1cc2nccc(Oc3ccc(NC(=O)C4(C(=O)Nc5ccc(F)cc5)CC4)cc3)c2cc1-c1cccc(C#N)c1F [Compound 175, 1-N-[4-[6-(3-cyano-2-fluorophenyl)-7-methoxyquinolin-4-yl]oxyphenyl]-1-N′-(4-fluorophenyl)cyclopropane-1,1-dicarboxamide] | 10 to 100 nM | 10 to 100 nM | – | 10 to 100 nM
COc1cc2nccc(Oc3ccc(NC(=O)C4(C(=O)Nc5ccc(F)cc5)CC4)cc3)c2cc1-c1ccccn1 [Compound 176, 1-N′-(4-fluorophenyl)-1-N-[4-(7-methoxy-6-pyridin-2-ylquinolin-4-yl)oxyphenyl]cyclopropane-1,1-dicarboxamide] | 10 to 100 nM | 10 to 100 nM | – | ≤ 10 nM
COc1cc2nccc(Oc3ccc(NC(=O)C4(C(=O)Nc5ccc(F)cc5)CC4)cc3)c2cc1-c1cnoc1 [Compound 183, 1-N′-(4-fluorophenyl)-1-N-[4-[7-methoxy-6-(1,2-oxazol-4-yl)quinolin-4-yl]oxyphenyl]cyclopropane-1,1-dicarboxamide] | ≤ 10 nM | 10 to 100 nM | – | 10 to 100 nM
COc1cc2nccc(Oc3ccc(NC(=O)C4(C(=O)Nc5ccc(F)cc5)CC4)cc3)c2cc1-c1c(C)noc1C [Compound 184, 1-N-[4-[6-(3,5-dimethyl-1,2-oxazol-4-yl)-7-methoxyquinolin-4-yl]oxyphenyl]-1-N′-(4-fluorophenyl)cyclopropane-1,1-dicarboxamide] | 10 to 100 nM | 100 to 300 nM | – | 10 to 100 nM
COc1cc2nccc(Oc3ccc(NC(=O)C4(C(=O)Nc5ccc(F)cc5)CC4)cc3)c2cc1C1CC1 [Compound 187, 1-N-[4-(6-cyclopropyl-7-methoxyquinolin-4-yl)oxyphenyl]-1-N′-(4-fluorophenyl)cyclopropane-1,1-dicarboxamide] | 10 to 100 nM | 10 to 100 nM | – | ≤ 10 nM
COc1cc2nccc(Oc3ccc(NC(=O)C4(C(=O)Nc5ccc(F)cc5)CC4)cc3)c2cc1C1(O)CN(C(=O)OC(C)(C)C)C1 [Compound 195, tert-butyl 3-[4-[4-[[1-[(4-fluorophenyl)carbamoyl]cyclopropanecarbonyl]amino]phenoxy]-7-methoxyquinolin-6-yl]-3-hydroxyazetidine-1-carboxylate] | 10 to 100 nM | 100 to 300 nM | – | 10 to 100 nM
COc1cc2nccc(Oc3ccc(NC(=O)C4(C(=O)Nc5ccc(F)cc5)CC4)cc3)c2cc1C1(O)COC1 [Compound 196, 1-N′-(4-fluorophenyl)-1-N-[4-[6-(3-hydroxyoxetan-3-yl)-7-methoxyquinolin-4-yl]oxyphenyl]cyclopropane-1,1-dicarboxamide] | ≤ 10 nM | 10 to 100 nM | – | ≤ 10 nM
COc1cc2nccc(Oc3ccc(NC(=O)C4(C(=O)Nc5ccc(F)cc5)CC4)cc3)c2cc1C1(O)CNC1 [Compound 197, 1-N′-(4-fluorophenyl)-1-N-[4-[6-(3-hydroxyazetidin-3-yl)-7-methoxyquinolin-4-yl]oxyphenyl]cyclopropane-1,1-dicarboxamide] | ≤ 10 nM | 100 to 300 nM | – | 10 to 100 nM
COc1cc2nccc(Oc3ccc(NC(=O)C4(C(=O)Nc5ccc(F)cc5)CC4)cc3)c2cc1N1CCC1 [Compound 198, 1-N-[4-[6-(azetidin-1-yl)-7-methoxyquinolin-4-yl]oxyphenyl]-1-N′-(4-fluorophenyl)cyclopropane-1,1-dicarboxamide] | 10 to 100 nM | 10 to 100 nM | – | 10 to 100 nM
COc1cc2nccc(Oc3ccc(NC(=O)C4(C(=O)Nc5ccc(F)cc5)CC4)cc3)c2cc1N1CC(F)(F)C1 [Compound 200, 1-N-[4-[6-(3,3-difluoroazetidin-1-yl)-7-methoxyquinolin-4-yl]oxyphenyl]-1-N′-(4-fluorophenyl)cyclopropane-1,1-dicarboxamide] | 10 to 100 nM | 10 to 100 nM | – | 10 to 100 nM
COc1cc2nccc(Oc3ccc(NC(=O)C4(C(=O)Nc5ccc(F)cc5)CC4)cc3)c2cc1-c1cccnc1 [Compound 201, 1-N′-(4-Fluorophenyl)-1-N-[4-(7-methoxy-6-pyridin-3-ylquinolin-4-yl)oxyphenyl]cyclopropane-1,1-dicarboxamide] | ≤ 10 nM | 10 to 100 nM | – | ≤ 10 nM
COc1cc2nccc(Oc3ccc(NC(=O)C4(C(=O)Nc5ccc(F)cc5)CC4)cc3)c2cc1-c1ccncc1 [Compound 202, 1-N′-(4-Fluorophenyl)-1-N-[4-(7-methoxy-6-pyridin-4-ylquinolin-4-yl)oxyphenyl]cyclopropane-1,1-dicarboxamide] | ≤ 10 nM | 10 to 100 nM | – | 10 to 100 nM
COc1cc2nccc(Oc3ccc(NC(=O)C4(C(=O)Nc5ccc(F)cc5)CC4)cc3)c2cc1S(C)(=O)=O [Compound 210, 1-N′-(4-Fluorophenyl)-1-N-[4-(7-methoxy-6-methylsulfonylquinolin-4-yl)oxyphenyl]cyclopropane-1,1-dicarboxamide] | ≤ 10 nM | 10 to 100 nM | – | ≤ 10 nM

Further lines, results first:

IC50 [1] | IC50 (AXL) | IC50 (Mer) | IC50 [2] | SMILES
≤ 10 nM | ≤ 10 nM | ≤ 10 nM | – | COc1cc2nccc(Oc3ccc(NC(=O)C4(C(=O)Nc5ccc(F)cc5)CC4)cc3)c2cc1C(N)=O [Compound 7, 1-N-[4-(6-carbamoyl-7-methoxyquinolin-4-yl)oxyphenyl]-1-N′-(4-fluorophenyl)cyclopropane-1,1-dicarboxamide]
≤ 10 nM | ≤ 10 nM | ≤ 10 nM | – | CNC(=O)c1cc2c(Oc3ccc(NC(=O)C4(C(=O)Nc5ccc(F)cc5)CC4)cc3)ccnc2cc1OC [Compound 8, 1-N′-(4-fluorophenyl)-1-N-[4-[7-methoxy-6-(methylcarbamoyl)quinolin-4-yl]oxyphenyl]cyclopropane-1,1-dicarboxamide]
– | ≤ 10 nM | ≤ 10 nM | – | CCNC(=O)c1cc2c(Oc3ccc(NC(=O)C4(C(=O)Nc5ccc(F)cc5)CC4)cc3)ccnc2cc1OC [Compound 9, 1-N-[4-[6-(ethylcarbamoyl)-7-methoxyquinolin-4-yl]oxyphenyl]-1-N′-(4-fluorophenyl)cyclopropane-1,1-dicarboxamide]
≤ 10 nM | ≤ 10 nM | ≤ 10 nM | – | COc1cc2nccc(Oc3ccc(NC(=O)C4(C(=O)Nc5ccc(F)cc5)CC4)cc3)c2cc1-c1ncco1 [Compound 45, 1-N′-(4-fluorophenyl)-1-N-[4-[7-methoxy-6-(1,3-oxazol-2-yl)quinolin-4-yl]oxyphenyl]cyclopropane-1,1-dicarboxamide]
≤ 10 nM | ≤ 10 nM | 10 to 100 nM | ≤ 10 nM | NC(=O)c1cc2c(Oc3ccc(NC(=O)C4(C(=O)Nc5ccc(F)cc5)CC4)cc3)ccnc2cc1OCCCN1CCOCC1 [Compound 98, 1-N-[4-[6-carbamoyl-7-(3-morpholin-4-ylpropoxy)quinolin-4-yl]oxyphenyl]-1-N′-(4-fluorophenyl)cyclopropane-1,1-dicarboxamide]
≤ 10 nM | ≤ 10 nM | ≤ 10 nM | ≤ 10 nM | COc1cc2nccc(Oc3ccc(NC(=O)C4(C(=O)Nc5ccc(F)cc5)CC4)cc3Cl)c2cc1C(N)=O [Compound 132, 1-N′-[4-(6-carbamoyl-7-methoxyquinolin-4-yl)oxy-3-chlorophenyl]-1-N-(4-fluorophenyl)cyclopropane-1,1-dicarboxamide]
10 to 100 nM | ≤ 10 nM | – | 10 to 100 nM | COc1cc2nccc(Oc3ccc(NC(=O)C4(C(=O)Nc5ccc(F)cc5)CC4)cc3)c2cc1-c1ccc(C)o1 [Compound 180, 1-N′-(4-fluorophenyl)-1-N-[4-[7-methoxy-6-(5-methylfuran-2-yl)quinolin-4-yl]oxyphenyl]cyclopropane-1,1-dicarboxamide]
≤ 10 nM | ≤ 10 nM | – | 10 to 100 nM | COc1cc2nccc(Oc3ccc(NC(=O)C4(C(=O)Nc5ccc(F)cc5)CC4)cc3)c2cc1-c1cn[nH]c1 [Compound 186, 1-N′-(4-fluorophenyl)-1-N-[4-[7-methoxy-6-(1H-pyrazol-4-yl)quinolin-4-yl]oxyphenyl]cyclopropane-1,1-dicarboxamide]
≤ 10 nM | ≤ 10 nM | – | 10 to 100 nM | COc1cc2nccc(Oc3ccc(NC(=O)C4(C(=O)Nc5ccc(F)cc5)CC4)cc3)c2cc1-c1ccc[nH]1 [Compound 188, 1-N′-(4-fluorophenyl)-1-N-[4-[7-methoxy-6-(1H-pyrrol-2-yl)quinolin-4-yl]oxyphenyl]cyclopropane-1,1-dicarboxamide]
– | ≤ 10 nM | ≤ 10 nM | – | COc1cc2nccc(Oc3ccc(NC(=O)C4(C(=O)Nc5ccc(F)cc5)CC4)cc3)c2cc1-c1ncc[nH]1 [Compound 191, 1-N′-(4-Fluorophenyl)-1-N-[4-[6-(1H-imidazol-2-yl)-7-methoxyquinolin-4-yl]oxyphenyl]cyclopropane-1,1-dicarboxamide]
≤ 10 nM | ≤ 10 nM | – | ≤ 10 nM | COc1cc2nccc(Oc3ccc(NC(=O)C4(C(=O)Nc5ccc(F)cc5)CC4)cc3)c2cc1N1CC(O)C1 [Compound 199, 1-N′-(4-fluorophenyl)-1-N-[4-[6-(3-hydroxyazetidin-1-yl)-7-methoxyquinolin-4-yl]oxyphenyl]cyclopropane-1,1-dicarboxamide]
